Assay [1] deals with rat orexin 1 receptor (Rattus norvegicus, UniProt P56718). Briefly: Rat orexin 1 receptor radioligand binding (competitive, [3H]-SB674042, HEK293 cell preparations).
Assay [2] deals with human orexin 2 receptor (Homo sapiens (Human), UniProt O43614). Briefly: Human orexin 2 receptor radioligand binding (competitive, [3H]-EMPA, HEK293 cell preparations).
Where [3] appears, read: rat orexin 1 receptor, [3H]-SB674042 competition binding, read-out: rOX1 Ki (nm).
The mark [4] stands for this setting: human orexin 2 receptor, [3H]-EMPA competition binding, read-out: hOX2 Ki (nm).

Broadly, the Ki is a measure of affinity in units of concentration, obtained from inhibition or displacement.

Structures are written as SMILES. Like-named read-outs stand apart in the source and are kept apart here. Some results are limits rather than exact numbers.

Sequence of human orexin 2 receptor (O43614 whole entry): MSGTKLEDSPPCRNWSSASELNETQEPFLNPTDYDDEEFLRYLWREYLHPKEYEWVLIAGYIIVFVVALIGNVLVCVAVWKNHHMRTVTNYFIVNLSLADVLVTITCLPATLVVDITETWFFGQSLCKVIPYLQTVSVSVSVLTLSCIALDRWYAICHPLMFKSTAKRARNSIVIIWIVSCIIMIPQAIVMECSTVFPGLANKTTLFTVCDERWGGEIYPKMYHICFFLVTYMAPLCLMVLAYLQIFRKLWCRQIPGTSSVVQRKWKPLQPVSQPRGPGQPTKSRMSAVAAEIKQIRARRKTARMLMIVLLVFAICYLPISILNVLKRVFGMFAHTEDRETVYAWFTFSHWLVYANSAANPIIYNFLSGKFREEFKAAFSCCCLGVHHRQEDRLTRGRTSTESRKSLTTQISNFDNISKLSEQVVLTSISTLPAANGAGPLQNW

Turning to `Cc1cnc(C(=O)N2C3CCC2C(COc2ccccn2)C3)c(-n2nccn2)c1` (racemic) [Example 71, (±)-(5-methyl-3-(2H-1,2,3-triazol-2-yl)pyridin-2-yl)(2-((pyridin-2-yloxy)methyl)-7-azabicyclo[2.2.1]heptan-7-yl)methanone], the values for the Ki in assay [1] (setting [3]) and in assay [2] (setting [4]) were 1200 nM and 3700 nM, respectively.

For the compound `Cc1ccc(N(C)C)c(C(=O)N2C3CCC2C(COc2ccccn2)C3)n1` (racemic) [Example 73, (±)-(3-(dimethylamino)-6-methylpyridin-2-yl)(2-((pyridin-2-yloxy)methyl)-7-azabicyclo[2.2.1]heptan-7-yl)methanone], the results for the Ki in assay [1] (setting [3]) and in assay [2] (setting [4]) were 278 nM and 7900 nM, respectively.

Regarding `O=C(c1nc2ccccc2cc1-n1nccn1)N1C2CCC1C(COc1ccccn1)C2` (racemic) [Example 74, (±)-(3-(2H-1,2,3-triazol-2-yl)quinolin-2-yl)(2-((pyridin-2-yloxy)methyl)-7-azabicyclo[2.2.1]heptan-7-yl)methanone], the Ki in assay [1] (rOX1 Ki (nm)) was determined as 359 nM; in assay [2] (setting [4]), 1700 nM.

In the case of `Cc1ccc2ncc(C)n2c1C(=O)N1C2CCC1C(COc1ccccn1)C2` (racemic) [Example 76, (±)-(3,6-dimethylimidazo[1,2-a]pyridin-5-yl)(2-((pyridin-2-yloxy)methyl)-7-azabicyclo[2.2.1]heptan-7-yl)methanone], the Ki in assay [1] (setting [3]) and in assay [2] (setting [4]) was more than 10000 nM throughout.

Turning to `Cn1cc(C(=O)N2C3CCC2C(COc2ccccn2)C3)c(-c2ccccc2)n1` (racemic) [Example 78, (±)-(1-methyl-3-phenyl-1H-pyrazol-4-yl)(2-((pyridin-2-yloxy)methyl)-7-azabicyclo[2.2.1]heptan-7-yl)methanone], the figures for the Ki in assay [1] (setting [3]) and in assay [2] (setting [4]) were 418 nM and 3100 nM, respectively.

As for `Cc1ccn2c(C)cnc2c1C(=O)N1C2CCC1C(COc1ccccn1)C2` (racemic) [Example 79, (±)-((3,7-dimethylimidazo[1,2-a]pyridin-8-yl)(2-((pyridin-2-yloxy)methyl)-7-azabicyclo[2.2.1]heptan-7-yl)methanone], the Ki in assay [1] (setting [3]) came to 2400 nM; in assay [2] (setting [4]), 8500 nM.

In the case of `Cc1ccn2ccnc2c1C(=O)N1C2CCC1C(COc1ccccn1)C2` (racemic) [Example 80, (±)-(7-methylimidazo[1,2-a]pyridin-8-yl)(2-((pyridin-2-yloxy)methyl)-7-azabicyclo[2.2.1]heptan-7-yl)methanone], the Ki in assay [1] (setting [3]) is 1100 nM; in assay [2] (setting [4]) it was more than 10000 nM.

On to `Cn1ncc(-c2ccccc2)c1C(=O)N1C2CCC1C(COc1ccccn1)C2` (racemic) [Example 81, (±)-(1-methyl-4-phenyl-1H-pyrazol-5-yl)(2-((pyridin-2-yloxy)methyl)-7-azabicyclo[2.2.1]heptan-7-yl)methanone], for which the Ki amounted to 916 nM in assay [1] (setting [3]) and 2900 nM in assay [2] (setting [4]).

In the case of `Cn1ncc(C(=O)N2C3CCC2C(COc2ccccn2)C3)c1-c1ccccc1` (racemic) [Example 84, (±)-(1-methyl-5-phenyl-1H-pyrazol-4-yl)(−2-((pyridin-2-yloxy)methyl)-7-azabicyclo[2.2.1]heptan-7-yl)methanone], the figures for the Ki in assay [1] (setting [3]) and in assay [2] (setting [4]) were 2600 nM and 9700 nM, respectively.

Take `Cc1ccc(N2CCN(C)CC2)c(C(=O)N2C3CCC2C(COc2ccccn2)C3)n1` (racemic) [Example 85, (±)-(6-methyl-3-(4-methylpiperazin-1-yl)pyridin-2-yl)(2-((pyridin-2-yloxy)methyl)-7-azabicyclo[2.2.1]heptan-7-yl)methanone]: the Ki in assay [1] (setting [3]) and in assay [2] (setting [4]) was more than 10000 nM throughout.

Regarding `Cc1ccc(N2CCNCC2)c(C(=O)N2C3CCC2C(COc2ccccn2)C3)n1` (racemic) [Example 86, (±)-(6-methyl-3-(piperazin-1-yl)pyridin-2-yl)(2-((pyridin-2-yloxy)methyl)-7-azabicyclo[2.2.1]heptan-7-yl)methanone], the Ki in assay [1] (setting [3]) and in assay [2] (hOX2 Ki (nm)) was more than 10000 nM each time.

Take `Cc1ccc(N2CCOCC2)c(C(=O)N2[C@@H]3CC[C@H]2[C@H](COc2ccccn2)C3)n1` (racemic) [Example 87, (±)-(6-methyl-3-morpholinopyridin-2-yl)((1S,2R,4R)-2-((pyridin-2-yloxy)methyl)-7-azabicyclo[2.2.1]heptan-7-yl)methanone]: the Ki in assay [1] (setting [3]) was 4200 nM; in assay [2] (hOX2 Ki (nm)), more than 10000 nM.

For the compound `Cc1ccc(-c2ncccc2C)c(C(=O)N2C3CCC2C(COc2ccccn2)C3)n1` (racemic) [Example 90, (±)-(3,6′-dimethyl-[2,3′-bipyridin]-2′-yl)(2-((pyridin-2-yloxy)methyl)-7-azabicyclo[2.2.1]heptan-7-yl)methanone], the Ki in assay [1] (setting [3]) is 3000 nM; in assay [2] (hOX2 Ki (nm)), more than 10000 nM.

In the case of `O=C(c1ncccc1-n1nccn1)N1C2CCC1C(COc1ccccn1)C2` (racemic) [Example 91, (±)-(3-(2H-1,2,3-triazol-2-yl)pyridin-2-yl)(2-((pyridin-2-yloxy)methyl)-7-azabicyclo[2.2.1]heptan-7-yl)methanone], the values for the Ki in assay [1] (rOX1 Ki (nm)) and in assay [2] (setting [4]) were 624 nM and 3300 nM, respectively.

On to `Cc1ccc(-n2cccn2)c(C(=O)N2C3CCC2C(COc2ccccn2)C3)n1` (racemic) [Example 95, (±)-(6-methyl-3-(1H-pyrazol-1-yl)pyridin-2-yl)(2-((pyridin-2-yloxy)methyl)-7-azabicyclo[2.2.1]heptan-7-yl)methanone], for which the Ki in assay [1] (setting [3]) stood at 247 nM; in assay [2] (setting [4]), 3700 nM.

As for `Cc1ccc(-c2ncccc2C)c(C(=O)N2C3CCC2C(COc2ncc(F)cn2)C3)n1` (racemic) [Example 98, (±)-(3,6′-dimethyl-[2,3′-bipyridin]-2′-yl)(2-(((5-fluoropyrimidin-2-yl)oxy)methyl)-7-azabicyclo[2.2.1]heptan-7-yl)methanone], the inhibitory constant (Ki) in assay [1] (setting [3]) and in assay [2] (setting [4]) was more than 10000 nM each time.

Take `Cc1cc(-c2ccc(C)nc2C(=O)N2C3CCC2C(COc2ncc(F)cn2)C3)on1` (racemic) [Example 99, (±)-(2-(((5-fluoropyrimidin-2-yl)oxy)methyl)-7-azabicyclo[2.2.1]heptan-7-yl)(6-methyl-3-(3-methylisoxazol-5-yl)pyridin-2-yl)methanone]: the Ki in assay [1] (rOX1 Ki (nm)) amounted to 1500 nM; in assay [2] (setting [4]), 2900 nM.

Take `Cc1ccc(-c2ncco2)c(C(=O)N2C3CCC2C(COc2ncc(F)cn2)C3)n1` (racemic) [Example 100, (±)-(2-(((5-fluoropyrimidin-2-yl)oxy)methyl)-7-azabicyclo[2.2.1]heptan-7-yl)(6-methyl-3-(oxazol-2-yl)pyridin-2-yl)methanone]: the Ki in assay [1] (setting [3]) is 950 nM; in assay [2] (setting [4]) it was 1800 nM.

In the case of `Cc1ccc(N2CCCC2)c(C(=O)N2C3CCC2C(COc2ncc(F)cn2)C3)n1` (racemic) [Example 101, (±)-(2-(((5-fluoropyrimidin-2-yl)oxy)methyl)-7-azabicyclo[2.2.1]heptan-7-yl)(6-methyl-3-(pyrrolidin-1-yl)pyridin-2-yl)methanone], the Ki in assay [1] (setting [3]) is 650 nM; in assay [2] (setting [4]), 1200 nM.

As for `Cc1cnn(-c2ccc(C)nc2C(=O)N2C3CCC2C(COc2ncc(F)cn2)C3)c1` (racemic) [Example 103, (±)-(2-(((5-fluoropyrimidin-2-yl)oxy)methyl)-7-azabicyclo[2.2.1]heptan-7-yl)(6-methyl-3-(4-methyl-1H-pyrazol-1-yl)pyridin-2-yl)methanone], the Ki was determined as 1700 nM in assay [1] (setting [3]) and 3600 nM in assay [2] (hOX2 Ki (nm)).

For `Cc1ccc(-n2cccn2)c(C(=O)N2C3CCC2C(COc2ncc(F)cn2)C3)n1` (racemic) [Example 104, (±)-(2-(((5-fluoropyrimidin-2-yl)oxy)methyl)-7-azabicyclo[2.2.1]heptan-7-yl)(6-methyl-3-(1H-pyrazol-1-yl)pyridin-2-yl)methanone], the Ki in assay [1] (rOX1 Ki (nm)) worked out at 1100 nM; in assay [2] (hOX2 Ki (nm)) it was 4600 nM.

With `COc1cccc(OC)c1C(=O)N1C2CCC1C(COc1ccc(F)cn1)C2` (racemic) [Example 106, (±)-(2,6-dimethoxyphenyl)(2-(((5-fluoropyridin-2-yl)oxy)methyl)-7-azabicyclo[2.2.1]heptan-7-yl)methanone], the results for the Ki in assay [1] (setting [3]) and in assay [2] (setting [4]) were 300 nM and 154 nM, respectively.

Take `O=C(c1ncc(Cl)cc1-n1nccn1)N1C2CCC1C(COc1ccc(F)cn1)C2` (racemic) [Example 112, (±)-(5-chloro-3-(2H-1,2,3-triazol-2-yl)pyridin-2-yl)(2-(((5-fluoropyridin-2-yl)oxy)methyl)-7-azabicyclo[2.2.1]heptan-7-yl)methanone]: the Ki turned out to be 480 nM in assay [1] (setting [3]) and 1000 nM in assay [2] (setting [4]).

Take `COc1cnc(C(=O)N2C3CCC2C(COc2ccc(F)cn2)C3)c(-n2nccn2)c1` (racemic) [Example 113, (±)-(2-(((5-fluoropyridin-2-yl)oxy)methyl)-7-azabicyclo[2.2.1]heptan-7-yl)(5-methoxy-3-(2H-1,2,3-triazol-2-yl)pyridin-2-yl)methanone]: the Ki in assay [1] (setting [3]) stood at 3400 nM; in assay [2] (setting [4]), 4800 nM.

`CCOc1ccc(C)nc1C(=O)N1C2CCC1C(COc1ccc(F)cn1)C2` (racemic) [Example 118, (±)-(3-ethoxy-6-methylpyridin-2-yl)(2-(((5-fluoropyridin-2-yl)oxy)methyl)-7-azabicyclo[2.2.1]heptan-7-yl)methanone]: the Ki is 440 nM in assay [1] (setting [3]) and 2200 nM in assay [2] (setting [4]).

On to `COc1ccc(C(=O)N2C3CCC2C(COc2ccc(F)cn2)C3)c(-n2nccn2)c1` (racemic) [Example 119, (±)-(2-(((5-fluoropyridin-2-yl)oxy)methyl)-7-azabicyclo[2.2.1]heptan-7-yl)(4-methoxy-2-(2H-1,2,3-triazol-2-yl)phenyl)methanone], for which the results for the Ki in assay [1] (setting [3]) and in assay [2] (setting [4]) were 500 nM and 1300 nM, respectively.

`Cc1cccc(-c2ncccn2)c1C(=O)N1C2CCC1C(COc1ccc(F)cn1)C2` (racemic) [Example 123, (±)-(2-(((5-fluoropyridin-2-yl)oxy)methyl)-7-azabicyclo[2.2.1]heptan-7-yl)(2-methyl-6-(pyrimidin-2-yl)phenyl)methanone]: the figures for the Ki in assay [1] (rOX1 Ki (nm)) and in assay [2] (setting [4]) were 400 nM and 286 nM, respectively.

The record behind these values is patent US9062078B2, “Substituted 7-azabicyles and their use as orexin receptor modulators” (priority 2013, dated 2015).
